Laboratory results reported in patent US20230406885A1, “CYCLIC PEPTIDES FOR TRAPPING INTERLEUKIN-1 BETA” (MERCK SHARP & DOHME LLC, priority 2022, published 2023).
Where a SMILES comes first, the peptide text is derived from it. [ ]: non-standard residue; d: D form. Phe(4-(trans-4-COOH-cHex)) = N[C@@H](Cc1ccc([C@H]2CC[C@H](C(=O)O)CC2)cc1)C(=O)O; Phe(4-(4-Ac-piperazinyl)) = CC(=O)N1CCN(c2ccc(C[C@H](N)C(=O)O)cc2)CC1; Trp(4-Cl)(βS-Me) = C[C@@H](c1c[nH]c2cccc(Cl)c12)[C@H](N)C(=O)O; Trp(βS-Me,4-F) = C[C@@H](c1c[nH]c2cccc(F)c12)[C@H](N)C(=O)O; Bip(4'-COOH) = N[C@@H](Cc1ccc(-c2ccc(C(=O)O)cc2)cc1)C(=O)O; 1Nal(3S-Me) = C[C@@H](c1cccc2ccccc12)[C@H](N)C(=O)O; Phe(4-COOH) = N[C@@H](Cc1ccc(C(=O)O)cc1)C(=O)O; h3Pal(5-CN) = N#Cc1cncc(CC[C@H](N)C(=O)O)c1; Pro(4R-NH2) = N[C@H]1CN[C@H](C(=O)O)C1; 1Nal = N[C@@H](Cc1cccc2ccccc12)C(=O)O; Ala(4-THP) = N[C@@H](CC1CCOCC1)C(=O)O; AEF = NCCOc1ccc(C[C@H](N)C(=O)O)cc1; hTyr = N[C@@H](CCc1ccc(O)cc1)C(=O)O; hPhe = N[C@@H](CCc1ccccc1)C(=O)O; 4Pal = N[C@@H](Cc1ccncc1)C(=O)O; dDab = NCC[C@@H](N)C(=O)O; Nle = CCCC[C@H](N)C(=O)O; dNMeA = CN[C@H](C)C(=O)O; Dap = NC[C@H](N)C(=O)O; Aib = CC(C)(N)C(=O)O

Each compound was assayed against T1, Recombinant human IL-1β (Homo sapiens, UniProt P01584) (assay: IL-6 assay in MRC5 cells: inhibition of IL-1β induced IL-6 secretion (AlphaLISA)). Settings: inhibition of IL-1β induced IL-6 secretion in MRC5 cells; IL-1β pre-incubated 1 hour with compound; read-out: MRC5 IC50.
T1 construct: purchased BioLegend 579404
T1 sequence (P01584 117-269): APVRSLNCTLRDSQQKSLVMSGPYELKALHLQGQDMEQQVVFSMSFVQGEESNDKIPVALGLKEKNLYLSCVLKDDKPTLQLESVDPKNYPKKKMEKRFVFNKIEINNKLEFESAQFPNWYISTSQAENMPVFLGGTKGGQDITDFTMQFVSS
Assay type: cell-based
How it was run: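 IL-1β at 2×EC80 in seeding medium (EMEM, 0.025% BSA) preincubated 1 h at ambient temperature with compound, then 3000 MRC5 cells/well added and incubated overnight at 37 °C, 5% CO2. IL-6 in conditioned medium quantified by AlphaLISA; IC50 from 4-parameter logistic fit.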
`CC(=O)NCCOc1ccc(C[C@@H]2NC(=O)[C@H](CCc3ccc(O)cc3)NC(=O)[C@@H](C)NC(=O)CNC(=O)[C@H](CCCCN)NC(=O)[C@H](Cc3ccc(-c4ccc(C(=O)O)cc4)cc3)NC(=O)CNC(=O)[C@@H](C)N(C)C(=O)[C@H](CC(=O)O)NC(=O)[C@H]([C@@H](C)c3cccc4ccccc34)NC(=O)[C@@H]3C[C@@H](N)CN3C(=O)CNC(=O)[C@H](Cc3ccc(C(=O)O)cc3)NC(=O)[C@H](Cc3c[nH]c4ccccc34)NC2=O)cc1` [Example 108] (cyclo([AEF](Ac)W[Phe(4-COOH)]G[Pro(4R-NH2)][1Nal(3S-Me)]D[dNMeA]G[Bip(4'-COOH)]KG[dA][hTyr])) was tested, and the IC50 was 0.102 nM.
In the case of `C[C@@H]1C(=O)NCC(=O)N[C@@H](Cc2ccc(-c3ccc(C(=O)O)cc3)cc2)C(=O)N[C@@H](Cc2cccc3ccccc23)C(=O)N[C@@H](CN)C(=O)NC(C)(C)C(=O)N[C@@H](CCc2cncc(C#N)c2)C(=O)N[C@@H](Cc2ccc(-c3ccc(C(=O)O)cc3)cc2)C(=O)N[C@@H](Cc2c[nH]c3ccccc23)C(=O)N[C@@H](Cc2ccc(C(=O)O)cc2)C(=O)NCC(=O)N2C[C@H](N)C[C@H]2C(=O)N[C@@H]([C@@H](C)c2c[nH]c3cccc(Cl)c23)C(=O)N[C@@H](CC(=O)O)C(=O)N1C` [Example 34] (cyclo([Bip(4'-COOH)]W[Phe(4-COOH)]G[Pro(4R-NH2)][Trp(4-Cl)(βS-Me)]D[dNMeA]G[Bip(4'-COOH)][1Nal][Dap][Aib][h3Pal(5-CN)])), the IC50 is reported as 0.0755 nM.
`C[C@@H]1C(=O)NCC(=O)N[C@@H](Cc2ccc(-c3ccc(C(=O)O)cc3)cc2)C(=O)N[C@@H](CCCCN)C(=O)N[C@@H](CC2CCOCC2)C(=O)N[C@H](C)C(=O)N[C@@H](CCc2cncc(C#N)c2)C(=O)N[C@@H](Cc2ccc(-c3ccc(C(=O)O)cc3)cc2)C(=O)N[C@@H](Cc2c[nH]c3ccccc23)C(=O)N[C@@H](Cc2ccc(C(=O)O)cc2)C(=O)NCC(=O)N2C[C@H](N)C[C@H]2C(=O)N[C@@H]([C@@H](C)c2c[nH]c3cccc(F)c23)C(=O)N[C@@H](CC(=O)O)C(=O)N1C` [Example 64] (cyclo([Bip(4'-COOH)]W[Phe(4-COOH)]G[Pro(4R-NH2)][Trp(βS-Me,4-F)]D[dNMeA]G[Bip(4'-COOH)]K[Ala(4-THP)][dA][h3Pal(5-CN)])) showed an IC50 of 0.0182 nM.
`C[C@@H]1C(=O)NCC(=O)N[C@@H](Cc2ccc(-c3ccc(C(=O)O)cc3)cc2)C(=O)N[C@@H](Cc2c[nH]c3ccccc23)C(=O)NCC(=O)N[C@H](CCN)C(=O)N[C@@H](CCc2ccc(O)cc2)C(=O)N[C@@H](Cc2ccc(-c3ccc(C(=O)O)cc3)cc2)C(=O)N[C@@H](Cc2c[nH]c3ccccc23)C(=O)N[C@@H](Cc2ccc(C(=O)O)cc2)C(=O)NCC(=O)N2C[C@H](N)C[C@H]2C(=O)N[C@@H]([C@@H](C)c2c[nH]c3cccc(Cl)c23)C(=O)N[C@@H](CCC(=O)O)C(=O)N1C` [Example 55] (cyclo([Bip(4'-COOH)]W[Phe(4-COOH)]G[Pro(4R-NH2)][Trp(4-Cl)(βS-Me)]E[dNMeA]G[Bip(4'-COOH)]WG[dDab][hTyr])) gave an IC50 of 0.0493 nM.
Work on `CC(C)C[C@@H]1NC(=O)[C@H](CCCCN)NC(=O)[C@H](Cc2ccc(-c3ccc(C(=O)O)cc3)cc2)NC(=O)CNC(=O)[C@@H](C)N(C)C(=O)[C@H](C)NC(=O)[C@H]([C@@H](C)c2c[nH]c3cccc(F)c23)NC(=O)[C@@H]2C[C@@H](N)CN2C(=O)CNC(=O)[C@H](Cc2ccc(C(=O)O)cc2)NC(=O)[C@H](Cc2c[nH]c3ccccc23)NC(=O)[C@H](Cc2ccc(-c3ccc(C(=O)O)cc3)cc2)NC(=O)[C@H](CCc2ccc(O)cc2)NC(=O)[C@@H](C)NC1=O` [Example 58] (cyclo([Bip(4'-COOH)]W[Phe(4-COOH)]G[Pro(4R-NH2)][Trp(βS-Me,4-F)]A[dNMeA]G[Bip(4'-COOH)]KL[dA][hTyr])) yielded an IC50 of 0.247 nM.
Work on `CC(=O)NCCOc1ccc(C[C@@H]2NC(=O)[C@H](CCc3cncc(C#N)c3)NC(=O)[C@@H](CCN)NC(=O)CNC(=O)[C@H](CC3CCOCC3)NC(=O)[C@H](Cc3ccc(-c4ccc(C(=O)O)cc4)cc3)NC(=O)CNC(=O)[C@@H](C)N(C)C(=O)[C@H](CC(=O)O)NC(=O)[C@H]([C@@H](C)c3cccc4ccccc34)NC(=O)[C@@H]3C[C@@H](N)CN3C(=O)CNC(=O)[C@H](Cc3ccc(C(=O)O)cc3)NC(=O)[C@H](Cc3c[nH]c4ccccc34)NC2=O)cc1` [Example 106] (cyclo([AEF](Ac)W[Phe(4-COOH)]G[Pro(4R-NH2)][1Nal(3S-Me)]D[dNMeA]G[Bip(4'-COOH)][Ala(4-THP)]G[dDab][h3Pal(5-CN)])) yielded an IC50 of 0.0263 nM.
Compound `CC(C)C[C@@H]1NC(=O)[C@H](Cc2cccc3ccccc23)NC(=O)[C@H](Cc2ccc(-c3ccc(C(=O)O)cc3)cc2)NC(=O)CNC(=O)[C@@H](C)N(C)C(=O)[C@H](CC(=O)O)NC(=O)[C@H]([C@@H](C)c2cccc3ccccc23)NC(=O)[C@@H]2C[C@@H](N)CN2C(=O)CNC(=O)[C@H](Cc2ccc(C(=O)O)cc2)NC(=O)[C@H](Cc2c[nH]c3ccccc23)NC(=O)[C@H](Cc2ccc(-c3ccc(C(=O)O)cc3)cc2)NC(=O)CNC(=O)C(C)(C)NC1=O` [Example 19] (cyclo([Bip(4'-COOH)]W[Phe(4-COOH)]G[Pro(4R-NH2)][1Nal(3S-Me)]D[dNMeA]G[Bip(4'-COOH)][1Nal]L[Aib]G)) has an IC50 of 0.118 nM.
Work on `CC(=O)N1CCN(c2ccc(C[C@@H]3NC(=O)[C@H](CCc4ccc(O)cc4)NC(=O)[C@@H](CCN)NC(=O)CNC(=O)[C@H](Cc4c[nH]c5ccccc45)NC(=O)[C@H](Cc4ccc(-c5ccc(C(=O)O)cc5)cc4)NC(=O)CNC(=O)[C@@H](C)N(C)C(=O)[C@H](CC(=O)O)NC(=O)[C@H]([C@@H](C)c4c[nH]c5cccc(Cl)c45)NC(=O)[C@@H]4C[C@@H](N)CN4C(=O)CNC(=O)[C@H](Cc4ccc(C(=O)O)cc4)NC(=O)[C@H](Cc4c[nH]c5ccccc45)NC3=O)cc2)CC1` [Example 85] (cyclo([Phe(4-(4-Ac-piperazinyl))]W[Phe(4-COOH)]G[Pro(4R-NH2)][Trp(4-Cl)(βS-Me)]D[dNMeA]G[Bip(4'-COOH)]WG[dDab][hTyr])) yielded an IC50 of 0.0543 nM.
`CC(C)C[C@@H]1NC(=O)[C@H](CCCCN)NC(=O)[C@H](Cc2ccc(-c3ccc(C(=O)O)cc3)cc2)NC(=O)CNC(=O)[C@@H](C)N(C)C(=O)[C@H](CC(=O)O)NC(=O)[C@H]([C@@H](C)c2c[nH]c3cccc(F)c23)NC(=O)[C@@H]2C[C@@H](N)CN2C(=O)CNC(=O)[C@H](Cc2ccc(C(=O)O)cc2)NC(=O)[C@H](Cc2c[nH]c3ccccc23)NC(=O)[C@H](Cc2ccc(-c3ccc(C(=O)O)cc3)cc2)NC(=O)[C@H](CCc2cncc(C#N)c2)NC(=O)[C@@H](C)NC1=O` [Example 66] (cyclo([Bip(4'-COOH)]W[Phe(4-COOH)]G[Pro(4R-NH2)][Trp(βS-Me,4-F)]D[dNMeA]G[Bip(4'-COOH)]KL[dA][h3Pal(5-CN)])) gave an IC50 of 0.0299 nM.
For `CC(C)C[C@@H]1NC(=O)[C@H](CCCCN)NC(=O)[C@H](Cc2ccc(-c3ccc(C(=O)O)cc3)cc2)NC(=O)CNC(=O)[C@@H](C)N(C)C(=O)[C@H](CC(N)=O)NC(=O)[C@H]([C@@H](C)c2c[nH]c3cccc(F)c23)NC(=O)[C@@H]2C[C@@H](N)CN2C(=O)CNC(=O)[C@H](Cc2ccc(C(=O)O)cc2)NC(=O)[C@H](Cc2c[nH]c3ccccc23)NC(=O)[C@H](Cc2ccc(-c3ccc(C(=O)O)cc3)cc2)NC(=O)[C@H](CCc2ccc(O)cc2)NC(=O)[C@@H](CCN)NC1=O` [Example 81] (cyclo([Bip(4'-COOH)]W[Phe(4-COOH)]G[Pro(4R-NH2)][Trp(βS-Me,4-F)]N[dNMeA]G[Bip(4'-COOH)]KL[dDab][hTyr])), the IC50 was 0.255 nM.
For `C[C@@H]1C(=O)NCC(=O)N[C@@H](Cc2ccc(-c3ccc(C(=O)O)cc3)cc2)C(=O)N[C@@H](Cc2ccncc2)C(=O)N[C@@H](CN)C(=O)N[C@H](C)C(=O)N[C@@H](CCc2ccc(O)cc2)C(=O)N[C@@H](Cc2ccc(-c3ccc(C(=O)O)cc3)cc2)C(=O)N[C@@H](Cc2c[nH]c3ccccc23)C(=O)N[C@@H](Cc2ccc(C(=O)O)cc2)C(=O)NCC(=O)N2C[C@H](N)C[C@H]2C(=O)N[C@@H]([C@@H](C)c2cccc3ccccc23)C(=O)N[C@@H](CC(=O)O)C(=O)N1C` [Example 22] (cyclo([Bip(4'-COOH)]W[Phe(4-COOH)]G[Pro(4R-NH2)][1Nal(3S-Me)]D[dNMeA]G[Bip(4'-COOH)][4Pal][Dap][dA][hTyr])), the IC50 was 0.0325 nM.

Same assay, conditions: inhibition of IL-1β induced IL-6 secretion in MRC5 cells; read-out: MRC5 IC50
`CCCC[C@@H]1NC(=O)[C@@H](CCN)NC(=O)CNC(=O)[C@H](Cc2ccncc2)NC(=O)[C@H](Cc2ccc(-c3ccc(C(=O)O)cc3)cc2)NC(=O)CNC(=O)[C@@H](C)N(C)C(=O)[C@H](CC(=O)O)NC(=O)[C@H]([C@@H](C)c2cccc3ccccc23)NC(=O)[C@@H]2C[C@@H](N)CN2C(=O)CNC(=O)[C@H](Cc2ccc(C(=O)O)cc2)NC(=O)[C@H](Cc2c[nH]c3ccccc23)NC(=O)[C@H](Cc2ccc([C@H]3CC[C@H](C(=O)O)CC3)cc2)NC1=O` [Example 197] (cyclo([Phe(4-(trans-4-COOH-cHex))]W[Phe(4-COOH)]G[Pro(4R-NH2)][1Nal(3S-Me)]D[dNMeA]G[Bip(4'-COOH)][4Pal]G[dDab][Nle])) was tested, and the IC50 was 0.024 nM.
In the case of `CC(=O)NCCOc1ccc(C[C@@H]2NC(=O)[C@H](CCc3ccccc3)NC(=O)[C@@H](C)NC(=O)[C@H](CN)NC(=O)[C@H](Cc3c[nH]c4ccccc34)NC(=O)[C@H](Cc3ccc(-c4ccc(C(=O)O)cc4)cc3)NC(=O)CNC(=O)[C@@H](C)N(C)C(=O)[C@H](CC(=O)O)NC(=O)[C@H]([C@@H](C)c3c[nH]c4cccc(Cl)c34)NC(=O)[C@@H]3C[C@@H](N)CN3C(=O)CNC(=O)[C@H](Cc3ccc(C(=O)O)cc3)NC(=O)[C@H](Cc3c[nH]c4ccccc34)NC2=O)cc1` [Example 144] (cyclo([AEF](Ac)W[Phe(4-COOH)]G[Pro(4R-NH2)][Trp(4-Cl)(βS-Me)]D[dNMeA]G[Bip(4'-COOH)]W[Dap][dA][hPhe])), the IC50 is reported as 0.0749 nM.
